Test results published in patent publication US8222187B2, “Method for improving the phytoremediation of polluted sites by providing plants with exogenous carbohydrates” (Universite de Rennes 1, priority 2003, dated 2012).

Legend:
superoxide ion = experiment: Superoxide ion production of the plants; assay type: in vivo, Arabidopsis thaliana; conditions: 10 mM sucrose
Method: In addition, the superoxide ion production of the plants was tested according to the method of Fryer et al. (2002 Imaging of photo-oxidative stress responses in leaves—J. Exp. Bot. 53: 1249-1254).

[1] = test system: D1 protein of photosystem II; experiment: D1 protein levels by Dot Blot and Western Blot; assay type: in vivo, Arabidopsis thaliana
Method: In another experiment series, Arabidopsis thaliana plants were cultivated in the culture medium described above in the absence of sucrose and in the presence of 10 mM and 80 mM of sucrose, and in the absence of atrazine and in the presence of 0.25 μM and 1 μM of atrazine. To measure the levels of D1 protein (31-kD monomer and 21.5-kD by-products), the membrane proteins of the plants were isolated according to the method of Pilgrim et al. (1998 Plant. J. 13 2-77-186). The levels of the total concentration of the target protein, D1 protein of photosystem II, were measured by Dot Blot analysis. Then, the different forms were analysed by gel electrophoresis separation under denaturing and Western Blot conditions.

Arabidopsis thaliana [2] = experiment: Photosynthetic pigment levels (chlorophylls and carotenoids) after 15 days of culture; assay type: in vivo
Method: (§1) Arabidopsis thaliana seeds (Wassilewskija ecotype) were sterilised at the surface according to the standard protocol and then rinsed with absolute ethanol and dried for one night.
(§2) These seeds were cultivated in Petri dishes on a culture medium of Murashige and Skoog (adjusted to a pH of 5.7) containing agar (0.8%). The Petri dishes were stored for 48 h at 4° C. then transferred to 22° C. under a photoperiod of 16 hours per day at 4500 lux. The sucrose and glucose were added to the culture medium, while no sugar was added for the controls.
(§3) A growth parameter (length of the primary roots) and the pigment levels (chlorophylls and carotenoids) were measured after 15 days of culture. The atrazine levels in the plants were also measured after one month of culture.
The photosynthetic pigments (chlorophylls and carotenoids) were extracted by grinding the aerial portions of the plants in 80% acetone and by measuring the absorbance of the extracts corresponding to 663 nm, 646 nm and 470 nm. The levels of these pigments were expressed in μg/mL and determined according to the method of Lichtenthaler et al. (1983 Biochem. Soc. Trans. 11, 591-592).

Arabidopsis thaliana [3] = experiment: Length of the primary roots of Arabidopsis thaliana after 15 days of culture on agar medium; assay type: in vivo
Method: as §1, §2, §3

photosystem II = target: T1, photosystem II (Arabidopsis thaliana, UniProt P83755); experiment: Activity of photosystem II monitored by chlorophyll fluorescence; assay type: in vivo; conditions: increasing sucrose (10 mM, 80 mM), atrazine 0.25 μM and 1 μM (lethal or sublethal doses without sucrose)
T1 construct: from tissue; host or cells: whole Arabidopsis thaliana plants grown on culture medium
Method: In another experiment series, Arabidopsis thaliana plants were cultivated in the culture medium described above in the absence of sucrose and in the presence of 10 mM and 80 mM of sucrose, and in the absence of atrazine and in the presence of 0.25 μM and 1 μM of atrazine. […] The activity of photosystem II is monitored by measuring the fluorescence of the chlorophylls.

Arabidopsis thaliana [4] = experiment: Arabidopsis culture on humus contaminated with atrazine; assay type: in vivo; conditions: humus with 10 μM atrazine; sucrose applied to the surface as a 3% solution
Method: Atrazine concentrations were also measured in the plants and the culture medium using conventional methods of extraction with solvents and high-performance liquid chromatography analysis with UV detection. The atrazine was extracted in a methanol and water mixture (4:1, v/v). After centrifugation, the supernatants were filtered on filters of 0.45 μm and the organic solvents were evaporated at 40° C. SPE cartridges were activated by washing with 5 mL or methanol then 5 mL of water. Each sample was applied to a column and the columns were then washed. The atrazine was eluted with 2 mL of dichloromethane. The organic solvents were then evaporated and the dry residues were dissolved in 500 μL of a methanol and water mixture (1:1). The samples were then analysed by HPLC with UV detection. In additional experiments, Arabidopsis thaliana was also cultivated on a humus contaminated at a concentration of 10 μM of atrazine in the absence of sucrose and in the presence of sucrose applied to the surface in the form of a 3% solution. The cultures obtained are shown in FIG. 11, in which the left-hand container corresponds to the culture in the presence of sucrose and the right-hand container corresponds to the culture in the absence of sucrose.

[5] = absence of sugars in the culture medium

Structure (SMILES)	effect on superoxide ion production (superoxide ion; increasing atrazine levels)	effect on D1 protein (Dot Blot, all D1 proteins) ([1]; 1 μM atrazine, plants not cultivated in the presence of sucrose)	concentration at which chlorophylls and carotenoids disappear completely (Arabidopsis thaliana [2]; [5]) [nM]	effect on levels of chlorophylls and carotenoids in the leaves (Arabidopsis thaliana [2]; in the presence of 80 mM sucrose or 80 mM glucose)	effect on the length of the primary roots (Arabidopsis thaliana [3]; 1 to 10 μM atrazine, in the presence of 80 mM sucrose or 80 mM glucose)	IC50 (Arabidopsis thaliana [3]; Arabidopsis thaliana, absence of sugars in the culture medium, hyperbolic regression curve (R^2=0.93), read-out: I50 for the atrazine inhibition of primary root length) [nM]	concentration at which inhibition of root development is complete, with discolouring and death of the plants (Arabidopsis thaliana [3]; [5]) [nM]	effect on root growth (Arabidopsis thaliana [3]; atrazine concentrations higher than 10 μM, in the presence of 80 mM sucrose or 80 mM glucose)	effect of sucrose on production of active oxygen species such as the superoxide ion (superoxide ion; in the presence of atrazine)	effect on activity of photosystem II (photosystem II)	effect on D1 protein and by-products (Western Blot) ([1]; 10 mM sucrose, 1 μM atrazine)	effect on D1 protein and by-products (Western Blot) ([1]; 80 mM sucrose, 1 μM atrazine)	effect on monomer of the D1 protein (Western Blot) ([1]; 80 mM sucrose, atrazine concentrations at which the monomer disappears without sucrose)	effect on D1 protein (Western Blot) ([1]; high sucrose concentrations, absence of atrazine)	effect on D1 protein and by-products (Western Blot) ([1]; sucrose in the culture medium, 0.25 μM atrazine)	seedlings on contaminated humus with sucrose compared with no sucrose (Arabidopsis thaliana [4])	increase in root growth at higher atrazine concentrations, sucrose compared with glucose (Arabidopsis thaliana [3]; 80 mM sugar)
CCNc1nc(Cl)nc(NC(C)C)n1 [atrazine, 2-chloro-4-ethylamino-6-isopropylamine-1,3,5-triazine]	appears to increase in the presence of atrazine	causes the disappearance of the D1 protein	500	the production of these pigments is not suppressed	inhibiting but non-lethal effect	120	500	paradoxically enable the root growth to improve	–	–	–	–	–	–	–	–	–
OC[C@H]1O[C@@](CO)(O[C@H]2O[C@H](CO)[C@@H](O)[C@H](O)[C@H]2O)[C@@H](O)[C@@H]1O [sucrose]	–	–	–	–	–	–	–	–	does not prevent the production	contribute to maintaining the activity of photosystem II	The same effect was observed	causes a decrease in the D1 protein	maintain a sufficient amount of monomer of the D1 protein	decrease in D1 protein production	greater accumulation of the D1 protein and its by-products	more numerous and larger	greater in the presence of sucrose than in the presence of glucose
